{
  "source": "patent US10189842B2",
  "about": "(Agency for Science, Technology and Research, priority 2013, dated 2019)",
  "data": [
    {"tested_on": "HEK293-STF3A cells", "test": "STF3A assay (luciferase reporter)", "format": "cell-based, Human", "conditions": "Homo sapiens, 24 h, 1 day of treatment", "description": "HEK293-STF cell line was modified from Human embryonic kidney cell line HEK293 transfected with the STF reporter. HEK293-STF3A cell line was further modified from HEK293-STF cell line to express Wnt3A. This cell line was used to identify compounds that regulate either early or late signaling components of the Wnt pathway. These two cell lines were obtained from David Virshup's laboratory, Duke-NUS. L-Wnt3A (ATCC, #CRL-2647) cell line was used for providing Wnt3A conditioned media. The three cell lines were grown in DMEM with 10% FBS incubated in 37° C. with 5% CO2.\n2×10^4 HEK293-STF3A cells in 75 μl culture media were seeded in each well of white 96 well plates (Greiner #655098) and incubated overnight at 37° C. 25 μl serially diluted compound was added to the cells to give final concentration of 50 μM to 1.5 nM. After 1 day of treatment, 100 μl of Steady-Glo Luciferase Assay reagent (#E2520, Promega) was added to each well and incubated for 10 minutes at room temperature. Luminescence was measured using Tecan Safire2 plate reader.", "units": {"IC50": "nM"}, "values": [
      {"smiles": "Cc1cncc(-c2cnc(NC(=O)CCC(=O)N3CCCn4nc(C)cc43)cc2C)c1", "note": "[Compound 120, N-(4,5′-dimethyl-3,3′-bipyridin-6-yl)-4-(2-methyl-6,7-dihydropyrazolo[1,5-a]pyrimidin-4(5H)-yl)-4-oxobutanamide]", "IC50": "< 5000"},
      {"smiles": "Cc1cc2n(n1)CCCN2C(=O)CCC(=O)Nc1nc(-c2cccc(Cl)c2)no1", "note": "[Compound 22, N-(3-(3-chlorophenyl)-1,2,4-oxadiazol-5-yl)-4-(2-methyl-6,7-dihydropyrazolo[1,5-a]pyrimidin-4(5H)-yl)-4-oxobutanamide]", "IC50": "> 10000"},
      {"smiles": "Cc1cc2n(n1)CCCN2C(=O)CCC(=O)Nc1ccc(-c2cccc(F)c2)cc1", "note": "[Compound 65, N-(3′-fluoro-[1,1′-biphenyl]-4-yl)-4-(2-methyl-6,7-dihydropyrazolo[1,5-a]pyrimidin-4(5H)-yl)-4-oxobutanamide]", "IC50": "< 100"},
      {"smiles": "Cc1cncc(-c2ccc(NC(=O)CCC(=O)N3CCCn4nc(C)cc43)nn2)c1", "note": "[Compound 104, 4-(2-methyl-6,7-dihydropyrazolo[1,5-a]pyrimidin-4(5H)-yl)-N-(6-(5-methylpyridin-3-yl)pyridazin-3-yl)-4-oxobutanamide]", "IC50": "< 100"},
      {"smiles": "Cc1cc2n(n1)CC(C)CN2C(=O)CCC(=O)Nc1ccc(-c2cccnc2)nn1", "note": "(stereo not drawn) [Compound 141, 4-(2,6-dimethyl-6,7-dihydropyrazolo[1,5-a]pyrimidin-4(5H)-yl)-4-oxo-N-(6-(pyridin-3-yl)pyridazin-3-yl)butanamide]", "IC50": "< 100"},
      {"smiles": "Cc1cc2n(n1)CCCN2C(=O)CCC(=O)Nc1ccc(-c2ccccc2)cc1C", "note": "[Compound 53, 4-(2-methyl-6,7-dihydropyrazolo[1,5-a]pyrimidin-4(5H)-yl)-N-(3-methyl-[1,1′-biphenyl]-4-yl)-4-oxobutanamide]", "IC50": "> 10000"},
      {"smiles": "CCNC(=O)N1CCN(c2ccc(NC(=O)CCC(=O)N3CCCn4nc(C)cc43)nc2)CC1", "note": "[Compound 79, N-ethyl-4-(6-(4-(2-methyl-6,7-dihydropyrazolo[1,5-a]pyrimidin-4(5H)-yl)-4-oxobutanamido)pyridin-3-yl)piperazine-1-carboxamide]", "IC50": "< 5000"},
      {"smiles": "Cc1cc2n(n1)CCCN2C(=O)CCC(=O)Nc1ccc(-c2cncc(N)c2)nc1", "note": "[Compound 112, N-(5′-amino-2,3′-bipyridin-5-yl)-4-(2-methyl-6,7-dihydropyrazolo[1,5-a]pyrimidin-4(5H)-yl)-4-oxobutanamide]", "IC50": "< 1000"},
      {"smiles": "Cc1cc2n(n1)CC(C)CN2C(=O)CCC(=O)Nc1ccc(-c2ccccc2)nn1", "note": "(stereo not drawn) [Compound 139, 4-(2,6-dimethyl-6,7-dihydropyrazolo[1,5-a]pyrimidin-4(5H)-yl)-4-oxo-N-(6-phenylpyridazin-3-yl)butanamide]", "IC50": "< 100"},
      {"smiles": "Cc1ccc(-c2ccc(NC(=O)CCC(=O)N3CCCn4nc(C)cc43)nn2)cn1", "note": "[Compound 107, 4-(2-methyl-6,7-dihydropyrazolo[1,5-a]pyrimidin-4(5H)-yl)-N-(6-(6-methylpyridin-3-yl)pyridazin-3-yl)-4-oxobutanamide]", "IC50": "< 100"},
      {"smiles": "Cc1cncc(-c2ccc(NC(=O)CCC(=O)N3CCCn4nc(C)cc43)nc2)n1", "note": "[Compound 128, 4-(2-methyl-6,7-dihydropyrazolo[1,5-a]pyrimidin-4(5H)-yl)-N-(5-(6-methylpyrazin-2-yl)pyridin-2-yl)-4-oxobutanamide]", "IC50": "< 100"},
      {"smiles": "Cc1cc2n(n1)CCCN2C(=O)CCC(=O)Nc1ccc(-c2cncc(F)c2)nn1", "note": "[Compound 103, N-(6-(5-fluoropyridin-3-yl)pyridazin-3-yl)-4-(2-methyl-6,7-dihydropyrazolo[1,5-a]pyrimidin-4(5H)-yl)-4-oxobutanamide]", "IC50": "< 100"},
      {"smiles": "Cc1cc2n(n1)CCCN2C(=O)CCC(=O)Nc1ccc(-c2ccccc2)cn1", "note": "[Compound 44, 4-(2-methyl-6,7-dihydropyrazolo[1,5-a]pyrimidin-4(5H)-yl)-4-oxo-N-(5-phenylpyridin-2-yl)butanamide]", "IC50": "< 100"},
      {"smiles": "Cc1cc2n(n1)CCCN2C(=O)CCC(=O)Nc1ccc(-c2cccnn2)cc1", "note": "[Compound 37, 4-{2-methyl-5H,6H,7H-pyrazolo[1,5-a]pyrimidin-4-yl}-4-oxo-N-[4-(pyridazin-3-yl)phenyl]butanamide]", "IC50": "< 1000"},
      {"smiles": "Cc1cc2n(n1)CCCN2C(=O)CCC(=O)Nc1ccc(-c2csc(C)n2)cc1", "note": "[Compound 28, 4-(2-methyl-6,7-dihydropyrazolo[1,5-a]pyrimidin-4(5H)-yl)-N-(4-(2-methylthiazol-4-yl)phenyl)-4-oxobutanamide]", "IC50": "< 100"},
      {"smiles": "Cc1cc2n(n1)CCCN2C(=O)CCC(=O)Nc1cc(-c2cncc(Cl)c2)no1", "note": "[Compound 18, N-[3-(5-chloropyridin-3-yl)-1,2-oxazol-5-yl]-4-{2-methyl-5H,6H,7H-pyrazolo[1,5-a]pyrimidin-4-yl}-4-oxobutanamide]", "IC50": "< 5000"},
      {"smiles": "Cc1cc2n(n1)CCCN2C(=O)CCC(=O)Nc1cc(-c2cccc(Cl)c2)nn1C", "note": "[Compound 21, N-(3-(3-chlorophenyl)-1-methyl-1H-pyrazol-5-yl)-4-(2-methyl-6,7-dihydropyrazolo[1,5-a]pyrimidin-4(5H)-yl)-4-oxobutanamide]", "IC50": "> 10000"},
      {"smiles": "Cc1cc2n(n1)CCCN2C(=O)CCC(=O)Nc1ccc(-n2ccnc2)cc1", "note": "[Compound 27, N-(4-(1H-imidazol-1-yl)phenyl)-4-(2-methyl-6,7-dihydropyrazolo[1,5-a]pyrimidin-4(5H)-yl)-4-oxobutanamide]", "IC50": "< 1000"},
      {"smiles": "Cc1cc2n(n1)CCCN2C(=O)CCC(=O)Nc1ccc(-c2nccs2)cc1", "note": "[Compound 25]", "IC50": "< 100"},
      {"smiles": "Cc1ccnc(-c2ccc(NC(=O)CCC(=O)N3CCCn4nc(C)cc43)nc2)c1", "note": "[Compound 148, N-(4-methyl-2,3′-bipyridin-6′-yl)-4-(2-methyl-6,7-dihydropyrazolo[1,5-a]pyrimidin-4(5H)-yl)-4-oxobutanamide]", "IC50": "< 100"},
      {"smiles": "COc1cc(-c2ccccc2)ccc1NC(=O)CCC(=O)N1CCCn2nc(C)cc21", "note": "[Compound 55, N-(3-methoxy-[1,1′-biphenyl]-4-yl)-4-(2-methyl-6,7-dihydropyrazolo[1,5-a]pyrimidin-4(5H)-yl)-4-oxobutanamide]", "IC50": "> 10000"},
      {"smiles": "Cc1cc2n(n1)CCCN2C(=O)CCC(=O)Nc1ccc(-c2cnccn2)cc1", "note": "[Compound 129, 4-(2-methyl-6,7-dihydropyrazolo[1,5-a]pyrimidin-4(5H)-yl)-4-oxo-N-(4-(pyrazin-2-yl)phenyl)butanamide]", "IC50": "< 100"},
      {"smiles": "Cc1cc2n(n1)CCCN2C(=O)CCC(=O)Nc1cc(-c2cccc(Cl)c2)no1", "note": "[Compound 3, N-(3-(3-chlorophenyl)isoxazol-5-yl)-4-(2-methyl-6,7-dihydropyrazolo[1,5-a]pyrimidin-4(5H)-yl)-4-oxobutanamide]", "IC50": "< 100"},
      {"smiles": "Cc1cc2n(n1)CCCN2C(=O)CCC(=O)Nc1ccc(-c2cccc(N3CCOCC3)c2)cc1", "note": "[Compound 73, 4-(2-methyl-6,7-dihydropyrazolo[1,5-a]pyrimidin-4(5H)-yl)-N-(3′-morpholinobiphenyl-4-yl)-4-oxobutanamide]", "IC50": "< 5000"},
      {"smiles": "Cc1cc2n(n1)CCCN2C(=O)CCC(=O)Nc1ccc(-c2ccccc2)c(C)c1", "note": "[Compound 54, 4-(2-methyl-6,7-dihydropyrazolo[1,5-a]pyrimidin-4(5H)-yl)-N-(2-methyl-[1,1′-biphenyl]-4-yl)-4-oxobutanamide]", "IC50": "< 100"},
      {"smiles": "Cc1cc2n(n1)CCCN2C(=O)CCC(=O)Nc1ccc(-c2nccs2)cn1", "note": "[Compound 26, 4-(2-methyl-6,7-dihydropyrazolo[1,5-a]pyrimidin-4(5H)-yl)-4-oxo-N-(5-(thiazol-2-yl)pyridin-2-yl)butanamide]", "IC50": "< 100"},
      {"smiles": "Cc1cncc(-c2ccc(NC(=O)C(C)CC(=O)N3CCCn4nc(C)cc43)nc2)n1", "note": "(stereo not drawn) [Compound 151, 2-methyl-4-(2-methyl-6,7-dihydropyrazolo[1,5-a]pyrimidin-4(5H)-yl)-N-(5-(6-methylpyrazin-2-yl)pyridin-2-yl)-4-oxobutanamide]", "IC50": "< 100"},
      {"smiles": "Cc1cc2n(n1)CC(C)CN2C(=O)CCC(=O)Nc1ccc(-c2ccccn2)cn1", "note": "(stereo not drawn) [Compound 171, N-([2,3′-bipyridin]-6′-yl)-4-(2,6-dimethyl-6,7-dihydropyrazolo[1,5-a]pyrimidin-4(5H)-yl)-4-oxobutanamide]", "IC50": "< 100"},
      {"smiles": "Cc1cc2n(n1)CCCN2C(=O)CCC(=O)Nc1ccc(-c2cccnc2)cc1", "note": "[Compound 35, 4-(2-methyl-6,7-dihydropyrazolo[1,5-a]pyrimidin-4(5H)-yl)-4-oxo-N-(4-(pyridin-3-yl)phenyl)butanamide]", "IC50": "< 100"},
      {"smiles": "Cc1cc2n(n1)CCCN2C(=O)CCC(=O)Nc1cc(C)c(-c2cccnc2)nn1", "note": "[Compound 106, 4-(2-methyl-6,7-dihydropyrazolo[1,5-a]pyrimidin-4(5H)-yl)-N-(5-methyl-6-(pyridin-3-yl)pyridazin-3-yl)-4-oxobutanamide]", "IC50": "< 5000"},
      {"smiles": "Cc1cncc(-c2ccc(NC(=O)CCC(=O)N3CC(C)Cn4nc(C)cc43)nc2)n1", "note": "(stereo not drawn) [Compound 157, 4-(2,6-dimethyl-6,7-dihydropyrazolo[1,5-a]pyrimidin-4(5H)-yl)-N-(5-(6-methylpyrazin-2-yl)pyridin-2-yl)-4-oxobutanamide]", "IC50": "< 100"},
      {"smiles": "Cc1cc2n(n1)C[C@@H](C)CN2C(=O)CCC(=O)Nc1ccc(-c2cccnc2)cn1", "note": "[Compound 169, N-(3,3′-bipyridin-6-yl)-4-(2,6-dimethyl-6,7-dihydropyrazolo[1,5-a]pyrimidin-4(5H)-yl)-4-oxobutanamide]", "IC50": "< 100"},
      {"smiles": "Cc1cc2n(n1)CCCN2C(=O)CCC(=O)Nc1cnc(-c2cccnc2)c(C)n1", "note": "[Compound 125, N-(6-methyl-5-(pyridin-3-yl)pyrazin-2-yl)-4-(2-methyl-6,7-dihydropyrazolo[1,5-a]pyrimidin-4(5H)-yl)-4-oxobutanamide]", "IC50": "> 10000"}
    ]}
  ]
}
